Consider seven compounds from ChEMBL document CHEMBL1201862, “PubChem BioAssay data set” (2004).

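Dose response: 5 concentrations. Exposure: 48 h. Format: 96-well plates. Endpoint: linear interpolation; highest concentration if not reached. GI50 marks 50% less growth.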 Activity calls are given as the source filed them. No stated cut-off is given here; in the data, active = GI50 up to about 1.1 µM and inactive = higher.

Common to all, as to assay: NCI tumour cell line growth inhibition, 48 h
Assay [1] relates to TK-10.
The test system of assay [2] is BT-549.
Assay [3] has as its system KM12.
The subject of assay [4] is SK-MEL-5.
Assay [5] relates to A549.
In assay [6] the test system is HL-60.
Assay [7] relates to MCF7.
For assay [8], the system named is MOLT-4.
Assay [9] deals with SNB-19.
Assay [10] relates to CCRF-CEM.
Assay [11] deals with HT-29.
Assay [12] has as its system M14.
The subject of assay [13] is A498.
Assay [14] concerns RPMI-8226.
For assay [15], the system named is NCI-H460.
Assay [16] relates to MDA-MB-435.
Assay [17] deals with LOX IMVI.
For assay [18], the system named is Hs-578T.
In assay [19] the test system is CAKI-1.
Assay [20] concerns ACHN.

As to `O=C1NC(c2ccccc2Cl)Nc2ccccc21` (stereo not given), the GI50 in assay [1] is > 53.1 µM (inactive); in assay [2] it was 28.4 µM (inactive); in [3] it was 3.76 µM (inactive); in [4], 5.57 µM (inactive); in [5] it was 32.5 µM (inactive); in [6], 2.91 µM (inactive). Also, the GI50 in assay [7] is > 65.3 µM (inactive); in assay [8], 8.77 µM (inactive); in assay [9], 15.1 µM (inactive); in assay [10] it was 11.4 µM (inactive); in assay [11], 6.67 µM (inactive); in assay [12], 10.5 µM (inactive). The GI50 in assay [13] is 30.8 µM (inactive); in [14], 7.73 µM (inactive); in [15] it was 13.9 µM (inactive); in assay [16], 1.65 µM (inactive); in [17] it was 12.5 µM (inactive); in assay [18] it was 9.53 µM (inactive). The GI50 in [19] is 5.71 µM (inactive); in assay [20], 29.5 µM (inactive).
In the case of `Nc1ccc2c3[nH]c4cc(N)ccc4cc-3nc2c1`, the GI50 is 2.09 µM (inactive) in [1]; 0.984 µM (active) in [2]; 0.167 µM (active) in assay [3]; 0.237 µM (active) in [4]; 0.286 µM (active) in [5]; 0.273 µM (active) in [6]. The GI50 in assay [7] is 0.069 µM (active); in [8], 0.0789 µM (active); in [9], 0.209 µM (active); in assay [10], 0.158 µM (active); in [11] it was 0.145 µM (active); in assay [12], 0.344 µM (active). Besides, the GI50 in [13] was 0.138 µM (active); in assay [14] it was 0.414 µM (active); in assay [15] it was 0.0775 µM (active); in assay [16], 0.136 µM (active); in assay [17] it was 0.199 µM (active); in assay [18] it was 0.11 µM (active). Besides, the GI50 in [19] was 0.203 µM (active); in assay [20] it was 0.0236 µM (active).
As to `Brc1ccc2[nH]cc(-c3csc(-c4c[nH]c5ccc(Br)cc45)n3)c2c1`, the GI50 in [1] is 2.69 µM (inactive); in assay [2], 5.75 µM (inactive); in assay [3], 1.47 µM (inactive); in assay [4], 1.64 µM (inactive); in assay [5] it was 2.69 µM (inactive); in [6], 3.24 µM (inactive). The GI50 in [7] was 2.7 µM (inactive); in assay [8], 1.63 µM (inactive); in assay [9], 2.88 µM (inactive); in assay [10] it was 1.92 µM (inactive); in [11] it was 1.7 µM (inactive); in assay [12], 1.53 µM (inactive). Also, the GI50 is 2.13 µM (inactive) in assay [13]; 1.64 µM (inactive) in [14]; 1.73 µM (inactive) in assay [15]; 1.93 µM (inactive) in assay [16]; 1.69 µM (inactive) in assay [17]; 3.79 µM (inactive) in assay [18]. For the same compound, the values for the GI50 in assay [19] and in [20] were 1.95 µM (inactive) and 1.93 µM (inactive), respectively.
On to `CN1CCN(c2c(Cl)cc(Cl)c3[nH]c4ccccc4c(=O)c23)CC1`, for which the GI50 in [1] is 10.6 µM (inactive); in assay [2], 16.1 µM (inactive); in assay [3], 6.11 µM (inactive); in [4] it was 9.71 µM (inactive); in [5], 5.56 µM (inactive); in assay [6] it was 2.28 µM (inactive). Further, the GI50 in assay [7] was 1.43 µM (inactive); in assay [8] it was 1.18 µM (inactive); in assay [9] it was 6.4 µM (inactive); in assay [10], 0.67 µM (active); in assay [11] it was 3.22 µM (inactive); in [12], 6.01 µM (inactive). Moreover, the GI50 in [13] was 3.96 µM (inactive); in assay [14], 3.1 µM (inactive); in [15], 11.2 µM (inactive); in [16] it was 5.71 µM (inactive); in assay [17], 3.64 µM (inactive); in assay [18] it was 4.8 µM (inactive). Also, the GI50 in [19] is 5.68 µM (inactive); in assay [20], 2.9 µM (inactive).
`COC(c1ccc(C(C)(C)C)cc1)(c1ccc(C(C)(C)C)cc1)c1ccc(C(C)(C)C)cc1`: the GI50 in [1], in assay [2], in assay [3], in assay [4], in assay [5] and in assay [6] was > 100 µM (inactive) each time. Moreover, the GI50 in [7] was > 100 µM (inactive); in assay [8], > 100 µM (inactive); in assay [9], > 100 µM (inactive); in assay [10], > 100 µM (inactive); in [11] it was > 100 µM (inactive); in [12], 70.5 µM (inactive). Moreover, the GI50 in [13], in assay [14], in [15], in [16], in [17] and in assay [18] was > 100 µM (inactive) in each case. Besides, the GI50 in [19] and in [20] was > 100 µM (inactive) each time.
For `COc1ccc(/C=C2\c3cc(OC)c(OC)cc3CCN2C(=O)c2ccccc2)cc1OC`, the GI50 was > 100 µM (inactive) in [1]; 27.7 µM (inactive) in assay [2]; 49.9 µM (inactive) in assay [3]; 18.5 µM (inactive) in assay [4]; 37.8 µM (inactive) in assay [5]; 23.1 µM (inactive) in assay [6]. Besides, the GI50 in assay [7] is 43.9 µM (inactive); in [8], 25.2 µM (inactive); in [9], > 100 µM (inactive); in [10] it was 32.3 µM (inactive); in [11], 30.7 µM (inactive); in [12], 58.2 µM (inactive). Besides, the GI50 in assay [13] was 35.4 µM (inactive); in assay [14] it was 29.4 µM (inactive); in assay [15], 28.1 µM (inactive); in [16], 21.2 µM (inactive); in assay [17] it was 41.6 µM (inactive); in assay [18], 35.6 µM (inactive). In addition, the GI50 in assay [19] was 54 µM (inactive); in assay [20], 53.5 µM (inactive).
On to `CN(C)CCCn1c2ccccc2c2cnccc21`, for which the GI50 is 26.8 µM (inactive) in assay [1]; 80.4 µM (inactive) in assay [2]; 43.2 µM (inactive) in assay [3]; 19.7 µM (inactive) in [4]; 33.6 µM (inactive) in assay [5]; 23.6 µM (inactive) in assay [6]. For the same compound, the GI50 is 35.2 µM (inactive) in assay [7]; 24.4 µM (inactive) in [8]; 44.9 µM (inactive) in assay [9]; 45.7 µM (inactive) in assay [10]; 25.1 µM (inactive) in assay [11]; 16.6 µM (inactive) in assay [12]. In addition, the GI50 in assay [13] was 38.5 µM (inactive); in assay [14], 26.7 µM (inactive); in assay [15], 23.9 µM (inactive); in [16] it was 28.3 µM (inactive); in assay [17] it was 24.2 µM (inactive); in [18], 42.7 µM (inactive). Besides, the GI50 is 38.7 µM (inactive) in assay [19] and 33.8 µM (inactive) in assay [20].
